One experiment deals with D. immitis microfilariae. Briefly: Activity against D. immitis microfilariae (viability after 3 days incubation). In kind it is cell-based. The note with it: Dirofilaria immitis, in Canis lupus familiaris, 72 h, read-out: Microfilaricidal activity, half maximal effective concentration (EC50).
The next experiment relates to L4 larvae of D. immitis. Briefly: microbe, parasite or virus in culture. The note with it: Dirofilaria immitis, 72 h, read-out: MIC100, lowest dose that results in complete loss of motility. The format is cell-based.

A value given as a limit tells only on which side of the number the result lay.

As for `O=C(CO[C@H]1CC[C@H](Nc2ccc([N+](=O)[O-])c(C(F)(F)F)c2)CC1)N1CCC(Oc2ccc(OC(F)(F)F)cc2)CC1` [Example 266], the EC50 in the experiment on D. immitis microfilariae was less than 5 µM. The MIC in the experiment with L4 larvae of D. immitis is less than 10 µM.
For `O=C(CO[C@H]1CC[C@H](Nc2ccc([N+](=O)[O-])c(C(F)(F)F)c2)CC1)N1CCC(Nc2ccc(C(F)(F)F)cc2)CC1` [Example 267] the same measures were less than 10 µM and less than 10 µM.

The values above are taken from patent publication US10010538B2, “Use of anthelmintic agents against Dirofilaria immitis” (Intervet Inc., priority 2014, dated 2018).
